Earlier results on 85 molecules are cited in the CATMoS acute toxicity set (Mansouri et al. 2021).

Several values for one entry are separate records, joined by “and”; a condition that tells them apart may be missing. Equal values may be shown once. Where a SMILES comes first, the peptide text is derived from it. Bridges are numbered along the chain shown (N, C = ends). [ ]: non-standard residue; d: D form. The star is where a group is joined. Octanoyl(6-Me) = CCC(C)CCCCC(=O)*; Dab = NCC[CH](N)C(=O)O

The LD50 is the dose at which mortality reaches 50%.

The data set can be described thus: rat acute oral toxicity. Particulars: in vivo.
As to `CCC(C)CCCCC(=O)NC(CCN)C(=O)NC(C(=O)NC(CCN)C(=O)NC1CCNC(=O)C(C(C)O)NC(=O)C(CCN)NC(=O)C(CCN)NC(=O)C(C(C)O)NC(=O)C(CC(C)C)NC(=O)C(CCN)NC1=O)C(C)O` (stereo not given) ({Octanoyl(6-Me)}-[Dab]T[Dab][Dab][Dab]LT[Dab][Dab]T; lactam 4-C; configuration not given here), the LD50 was 910 mg/kg.
For the molecule `O=C(Nc1cc(Cl)cc(Cl)c1O)c1c(O)c(Cl)cc(Cl)c1Cl`, the LD50 is 1000 mg/kg.
In the case of `CC(C)(O)CCc1ccccc1`, the LD50 was 2200 mg/kg.
As to `COc1ccc(CCNCC(O)COc2ccc(OCC(C)=O)c3c2CCC(=O)N3)cc1OC` (stereo not given), the LD50 is 1260 mg/kg.
As for `C=C(CCl)CCl`, the LD50 is 150 mg/kg.
Turning to `NC(=O)OCC(O)COc1ccc(Cl)cc1` (stereo not given), the LD50 was 744 mg/kg.
As for `ClCCCCCCCl`, the LD50 is 2680 mg/kg.
`N=C(N)NN=C1C=CC(=NNC(N)=S)C=C1`: the LD50 is 750 mg/kg.
Consider `O=C(C(F)(F)F)C(F)(F)F`, for which the LD50 is 190 mg/kg and 191 mg/kg.
In the case of `CNP1(=S)OCc2cc([N+](=O)[O-])ccc2O1` (stereo not given), the LD50 is 125 mg/kg.
As to `CCCCC(CC)COCCC(=O)O` (stereo not given), the LD50 was 3730 mg/kg.
With `Nc1nc2cc(I)ccc2o1`, the LD50 is 1000 mg/kg.
Take `C=C(C)C(=O)OCC(CCCC)CCCCCC` (stereo not given): the LD50 is 26000 mg/kg.
On to `c1ccc([C@H]2CN3CCSC3=N2)cc1`, for which the LD50 is 480 mg/kg.
In the case of `CC(C)(C)OC(=O)CCl`, the LD50 is 380 mg/kg.
In the case of `CCC1(c2ccccc2)NC(=O)N(C)C1=O` (stereo not given), the LD50 was 850 mg/kg.
As to `CCOC(=O)N(C)N=O`, the LD50 was 180 mg/kg.
For `CC(C(=O)O)c1ccc(Oc2nccs2)cc1` (stereo not given), the 50% lethal dose (LD50) was 135 mg/kg.
With `CSCc1cnccn1`, the LD50 is 2150 mg/kg.
On to `CCCCC(C)(C)CO`, for which the LD50 is 2200 mg/kg.
Take `Cc1c(COC(=O)[C@@H]2[C@H](/C=C(\Cl)C(F)(F)F)C2(C)C)cccc1-c1ccccc1` (racemic): the LD50 is 54.5 mg/kg.
In the case of `O=c1c2ccccc2c2ccc3c4c(ccc1c24)c1ccc2c(=O)c4ccccc4c4nn3c1c24`, the median lethal dose (LD50) was 13900 mg/kg.
Take `CCC(C)C(C(=O)OC1CC[N+](C)(C)CC1)c1ccccc1` (stereo not given): the LD50 was 720 mg/kg.
As for `CC(C)=NOC(=O)Nc1ccccc1`, the LD50 is 1540 mg/kg.
On to `N=C(N)Nc1ccc(C(=O)Oc2ccc3cc(C(=N)N)ccc3c2)cc1`, for which the LD50 was 3050 mg/kg.
As to `F[Si](F)(F)c1ccccc1`, the LD50 is 310 mg/kg.
`Cc1cc(=O)[nH]o1`: the LD50 was 3110 mg/kg.
As to `CC1=[N+](C)C2CCC1(c1ccccc1)c1ccccc12` (stereo not given), the LD50 was 707 mg/kg.
Take `COC1CC=C2CCN3CCC4=C(CC(=O)OC4)C23C1` (stereo not given): the median lethal dose (LD50) is 320 mg/kg.
In the case of `CC(C)OP(=S)(OC(C)C)SCn1nc(Cl)ccc1=O`, the LD50 was 190 mg/kg.
For the molecule `Cc1cccc(N)n1`, the LD50 is 100 mg/kg.
On to `CCOP(=S)(OCC)Oc1nc(Cl)n(C(C)C)n1`, for which the LD50 was 27 mg/kg.
As to `C=CCN(C)N=O`, the LD50 is 340 mg/kg.
As to `Cc1cc(Cl)ccc1NC=O`, the LD50 is 564 mg/kg.
As to `COc1c(OP(=O)(OC(C)C)OC(C)C)cnn(C)c1=O`, the LD50 is 1.9 mg/kg.
For the molecule `CCOP(=S)(OC)SCN1C(=O)c2ccccc2C1=O` (stereo not given), the LD50 is 50 mg/kg.
Turning to `CCNc1nc(NC(C)C)nc(OC)n1`, the LD50 is 1460 mg/kg.
Consider `COP(=O)(OC)OC(Br)C(Br)(Br)Br` (stereo not given), for which the LD50 is 184 mg/kg.
As for `CN(SSC(C)(C)C)C(=O)ON=C1SCCS1`, the LD50 is 5.6 mg/kg.
Take `CCN(CC)CCOc1nn(-c2cccc(C(F)(F)F)c2)c2ncccc12`: the LD50 was 1200 mg/kg.
Consider `O=P(OCCCl)(OCCCl)OCC(CO)(CO)COP(=O)(OCCCl)OCCCl`, for which the LD50 was 4920 mg/kg.
As for `CCCC[N+](CCCC)(CCCC)CCCC`, the LD50 is 1990 mg/kg.
`Cc1ccc(N=NN(C)C)cc1`: the LD50 is 395 mg/kg.
Turning to `Clc1cccc(C(Cl)(Cl)Cl)n1`, the LD50 was 940 mg/kg.
Regarding `O=c1oc(=O)c2cc3c(=O)oc(=O)c3cc12`, the LD50 was 2250 mg/kg.
As for `CC[N+]1(C)[C@@H]2C[C@@H](OC(=O)[C@H](CO)c3ccccc3)C[C@H]1[C@@H]1O[C@@H]12` (stereo not given in full), the LD50 is 2250 mg/kg.
On to `NCCSSCCN`, for which the LD50 was 896 mg/kg.
Consider `CN1C(=O)CCS(=O)(=O)C1c1ccc(Cl)cc1` (stereo not given), for which the LD50 was 605 mg/kg.
For `CN(C)c1c(Cl)c(Cl)c(Cl)c2nc(C(F)(F)F)[nH]c12`, the LD50 was 22 mg/kg.
For `NC1=NC(C(F)(F)F)(C(F)(F)F)NC1(C(F)(F)F)C(F)(F)F`, the LD50 is 19 mg/kg.
`CCCSP(=O)(OC)SCCC`: the median lethal dose (LD50) was 6.8 mg/kg.
As for `COc1ccc2c3c1O[C@H]1C(=O)CC[C@H]4[C@@H](C2)N(C)CC[C@]314`, the LD50 is 375 mg/kg.
Regarding `O=NN(CCCl)C(=O)NCCS(=O)(=O)NCc1ccccc1`, the LD50 is 250 mg/kg.
As to `CCS`, the LD50 is 682 mg/kg.
As for `CCOP(=O)(OCC)OC(=C(Cl)Br)c1ccc(Cl)cc1Cl`, the median lethal dose (LD50) is 19.3 mg/kg.
On to `O=C(Nc1cc(F)ccc1F)NC1CC1`, for which the LD50 is 152 mg/kg.
`C[N+](C)(N)CCBr`: the LD50 is 3200 mg/kg.
With `N#CN`, the median lethal dose (LD50) is 1620 mg/kg.
Turning to `CCOC(=S)c1ccc2c(c1)OCO2`, the LD50 is 1160 mg/kg.
For the molecule `N=C1C=C(Br)C(=O)c2c(N)cc(Br)c(O)c21`, the 50% lethal dose (LD50) was 2400 mg/kg.
Take `Cc1cccc2ccccc12`: the LD50 is 1840 mg/kg.
For `Clc1cccc(N2CCNCC2)c1`, the LD50 was 142 mg/kg.
For the molecule `CCC1(CC)Oc2cccc(OC(=O)N(C)C(C)=O)c2O1`, the LD50 was 375 mg/kg.
Take `CC(C)OP(O)(=S)OC(C)C`: the LD50 was 20200 mg/kg.
As to `OC1(c2ccc(Cl)c(Cl)c2)c2ccccc2C2=NCCN21` (stereo not given), the LD50 is 353 mg/kg.
On to `CN(C)S(=O)(=O)N(SC(F)(Cl)Cl)c1ccccc1`, for which the LD50 is 500 mg/kg.
Regarding `C=CCCCCCCCCC(=O)OC`, the LD50 is 1560 mg/kg.
Turning to `NS(=O)(=O)c1cc2c(cc1Cl)N=CNS2(=O)=O`, the LD50 was 10000 mg/kg.
Take `CS(=O)(=O)c1ccc(-c2cn3ccccc3n2)cc1`: the 50% lethal dose (LD50) was 3710 mg/kg.
For the molecule `Nc1cc2c(cc1C1CCCCC1)CCC2C(=O)O` (stereo not given), the LD50 is 54 mg/kg.
As for `COc1ccc2c(=O)c3ccccc3oc2c1CN1CCCCC1`, the LD50 was 183 mg/kg.
As for `CCCCCCCCN`, the LD50 was 315 mg/kg.
Take `C[C@H]1CC[C@@H]2[C@@H](C)[C@H]3[C@H](C[C@H]4[C@@H]5CC=C6CC(O[C@@H]7O[C@H](CO)[C@H](O)[C@H](O[C@@H]8O[C@H](CO)[C@@H](O)[C@H](O)[C@H]8O)[C@H]7O[C@H]7O[C@@H](C)[C@H](O)[C@@H](O)[C@H]7O)CC[C@]6(C)[C@H]5CC[C@]34C)N2C1` (stereo not given in full): the LD50 is 590 mg/kg.
In the case of `CN(C)C(=O)NC1CCC2C3CCC(C3)C12` (stereo not given), the LD50 is 1600 mg/kg.
As to `CC(=O)Nc1cccc2c3ccccc3n(C)c12`, the LD50 is 3120 mg/kg.
`CC(=NO)C(C)(O)C#Cc1ccccc1` (stereo not given): the LD50 was 3120 mg/kg.
As to `CC(C)c1cccc(C(C)C)c1N=C=O`, the LD50 was 1410 mg/kg.
For `c1nnc(NCNc2nncs2)s1`, the LD50 is 260 mg/kg.
On to `Clc1cncc(N2CCNCC2)n1`, for which the LD50 is 79.6 mg/kg.
Consider `CNC(=O)C(Cl)C(C)=O` (stereo not given), for which the LD50 was 700 mg/kg.
Turning to `CN1C(=O)CN2CCc3ccccc3C2c2cc(Cl)ccc21` (stereo not given), the LD50 is 1730 mg/kg.
Consider `CCOC(=S)C=Cc1ccc(OC)c(OC)c1`, for which the LD50 is 980 mg/kg.
As for `C=CCN1CCC23CCCCC2C1Cc1ccc(O)cc13` (stereo not given), the 50% lethal dose (LD50) is 850 mg/kg.
On to `c1ccc2c(c1)ncn2P(n1cnc2ccccc21)n1cnc2ccccc21`, for which the LD50 was 2900 mg/kg.
Regarding `O=C(Cl)c1ccc(C(=O)Cl)cc1`, the LD50 was 2500 mg/kg.
